This is an account of results in publication PMC9796306, “Multiple detection of both attractants and repellents by the dCache‐chemoreceptor SO_1056 of Shewanella oneidensis” (The Febs Journal, 2022).

For experiment [1], the target named is T1, MBP-LBD1056 (ligand-binding domain of MCP SO_1056) (Shewanella oneidensis, UniProt Q8EHZ8).
T1 sequence (Q8EHZ8 29-278): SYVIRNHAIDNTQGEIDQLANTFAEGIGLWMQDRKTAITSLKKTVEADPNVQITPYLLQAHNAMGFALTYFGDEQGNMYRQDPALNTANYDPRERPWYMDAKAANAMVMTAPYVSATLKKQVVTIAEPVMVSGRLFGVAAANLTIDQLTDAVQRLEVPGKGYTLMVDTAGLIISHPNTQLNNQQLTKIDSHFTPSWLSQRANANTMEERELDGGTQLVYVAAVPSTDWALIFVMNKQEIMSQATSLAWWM
As to the kind of experiment: isothermal titration calorimetry. The conditions noted are these: read-out: apparent KD. (In ITC the heat of successive injections is recorded.)

Experiment [2] has as its target MBP-LBD1056 (ligand-binding domain of MCP SO_1056) (Shewanella oneidensis, UniProt Q8EHZ8, N170D).

Each structure is given as a SMILES string.

Chain of MBP-LBD1056 (ligand-binding domain of MCP SO_1056) (Shewanella oneidensis, UniProt Q8EHZ8, N170D) (Q8EHZ8 entry or part of it N170D): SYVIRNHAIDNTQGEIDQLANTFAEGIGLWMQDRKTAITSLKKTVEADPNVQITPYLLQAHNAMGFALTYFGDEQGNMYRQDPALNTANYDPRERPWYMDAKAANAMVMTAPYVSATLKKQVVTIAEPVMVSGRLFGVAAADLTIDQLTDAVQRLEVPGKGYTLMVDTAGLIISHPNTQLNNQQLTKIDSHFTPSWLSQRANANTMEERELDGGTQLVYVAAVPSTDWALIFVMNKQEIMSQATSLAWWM

Consider `O=C(O)C[C@H](O)C(=O)O` [L-malate], for which the Kd in experiment [1] is 3.4 ± 0.3 µM. Moreover, the “dTm at 1 mM” value in experiment [2] was determined as 2.4 °C.
